Measurements taken from patent US9566265B2, “Carbazole compounds and therapeutic uses of the compounds” (Incuron, LLC, priority 2008, dated 2017).

Experiments:
[1] = Ames test
[2] = test system: p53; test: p53 activation assay, p53 responsive luciferase reporter cell line; assay type: cell-based, human; conditions: Homo sapiens, 16 h, HT1080-L or RCC45ConALuc reporter cells, 16 h; read-out: EC50 value (p53 activation)
Protocol: The potency of a present carbazole compound is determined by measuring an ability of the compound to inhibit NF-κB activity or to activate p53. […] Theoretically, such assays of the dose-response effect of activator compounds can be described as a sigmoidal curve expressing a degree of activation as a function of concentration. The curve also theoretically passes through a point at which the concentration is sufficient to increase activity to a level that is 50% that of the difference between a baseline and the maximal activity in the assay. […] Determination of an EC50 value is made using conventional biochemical (acellular) assay techniques or cell-based assay techniques.
The potency of a carbazole compound is determined by measuring an ability of the compound to activate p53.
The p53 activation assay for determination of the EC50 value was performed as follows:
HT1080-L (human fibrosarcoma cells with ConALuc reporter)
RCC45ConALuc (human renal cell carcinoma cell line with ConALuc reporter)
1. Two types of standard cells were used, either HT1080-L or RCC45ConALuc cells. Both cell lines stably express a p53 responsive luciferase reporter construct.
2. HT1080-L cells were grown in DMEM medium containing 10% FBS. RCC45ConALuc cells were grown in RPMI medium containing 10% FBS (Pen/Strep can be added to a final concentration of 1%, if desired). Both cell lines were grown in a humidified incubator at 37° C. with 5% CO2. For normal culturing, both cell lines were split using 1× trypsin-EDTA at a ratio of 1:20 for HT1080-L and 1:5 for RCC45ConALuc cells every 3-4 days (when cells are 80-90% confluent).
3. A day before the experiment, the cells are trypsinized for about 5 minutes in 1× tripsin/EDTA solution in 37° C. incubator and plated in 96 well plates. HT1080-L cells were seeded at a density of 1×10^4/well in standard DMEM medium in a volume of 50 μl. RCC45ConALuc were seeded at a density of 2×10^4/well in the volume of 50 uL in standard RPMI medium.
4. The next day, various carbazole compounds were prepared by dilution of stock solutions in standard DMEM medium such that the cells were treated with the final chemical concentrations in Table 1 below. Stock solutions were made up in DMSO. Typically, chemicals were made up as 20 mM stock solutions.
5. Each tested compound used two rows of a 96-well plate, thus four compounds (e.g., W, X, Y, Z) were tested in one plate simultaneously. In addition to test compounds, each plate included positive and negative controls. As positive control, 9aa was used at a dose of 3 μM. As a negative control, DMSO was used in final concentration 0.1%.
1. Dilutions of chemicals added to the plate were made up as 2× concentrations in standard DMEM and added to corresponding well in a volume of 50 μl.
2. Chemicals were diluted in standard DMEM by two time serial dilutions starting from 40 μM (2× of highest concentration, e.g., 20 μM). For one cell line, the minimum volume was 125 μL of 2× working solution of chemical of each concentration in standard DMEM.
4. Sixteen hours following compound addition, all wells with the highest concentrations of compounds are checked microscopically for the presence of toxic effect, because death of cells caused by compounds may not allow detecting luciferase activity. If cytotoxocity is evident, other doses of the same compounds were checked for the presence of toxicity. The lowest dose causing toxic effect was recorded.
5. After microscopic examination, 15 μl of Bright Glo luciferase assay system were added to each well and after 5 min incubation at RT, the plates were read on a 96 well plate luminometer with a measurement time of 0.1 sec. A shaking step was included before measurement.
6. The folds of luciferase activation for each concentration of each chemical were calculated by dividing the detected luciferase activity at each chemical concentration by the average of the luciferase activity for the DMSO control on the same plate.

[3] = test system: Topo II; test: Topo II inhibition in vitro (Table I); assay type: biochemical
[4] = test system: thirteen cancer cell lines; test: relative cell survival of cancer cell lines, methylene blue staining (FIG. 11); assay type: cell-based; conditions: 24 hours treatment, then compound-free medium
Protocol: FIG. 11 contains plots of concentration of Compound 100 (μM) vs. relative cell survival for thirteen cancer cell lines showing that a present carbazole compound is an effective agent against numerous types of cancer;
Each of the cell lines presented in FIG. 11 was seeded into 96 well plates. The next day, cells were treated with a range of concentrations of Compound 100. Treatment occurred for 24 hours, at which time compound-filled medium was replaced with compound-free medium and cells were allowed to grow until the control wells, which were treated with only vehicle control (DMSO), reached a monolayer (typically within 48 hours). Cells then were fixed and stained with 0.5% methylene blue in 50% methanol. The dye was eluted with 1% SDS and the absorbance measured at 650 nm. Data is presented as the absorbance at 650 nm versus the concentration of Compound 100.

[5] = test system: γH2AX; test: γH2AX staining (Table I); assay type: cell-based
[6] = test system: ATM/ATR; test: ATM/ATR activation (Table I); assay type: cell-based
[7] = test system: Chk1/2; test: Chk1/2 phosphorylation (Table I); assay type: cell-based
[8] = test system: Topo II; test: Topo II inhibition in cells (Table I); assay type: cell-based

**Q.** What does the source list for `CCN(CC)CCn1c2ccc([N+](=O)[O-])cc2c2cc([N+](=O)[O-])ccc21` [Compound 100]?
**A.** Ames test [1]: negative; EC50 [2]: 1.3 µM; Topo II inhibition in vitro [3]: ligation; anti-cancer activity against tested cancer cells [4]: significant anti-cancer activity; γH2AX staining [5]: no; ATM/ATR activation [6]: no; Chk1/2 phospho [7]: no; Topo II inhibition in cells [8]: no
